Tests used:
[1] = molecular target: T1, MDM2 (Homo sapiens, UniProt Q00987); assay: Pull-down with biotin-labeled AS1411 in HeLa cells transfected with si-NC or si-NCL; format: cell-based; parameters: HeLa cervical cancer cells were lysed with an IP lysis solution; endogenous in cells; host or cells: HeLa; details: 500 nM biotin-labeled, 6 h, si-NCL vs si-NC
Protocol: HeLa cells were transfected with negative control siRNA (si-NC, SEQ ID NO: 16) or NCL siRNA (si-NCL, SEQ ID NO: 17) and subsequently incubated with 500 nM biotin-labeled AS1411 for 6 h. After cell lysis, the supernatant was incubated with streptavidin-coated magnetic beads at 4° C. overnight. The bound AS1411 and its captured proteins on the magnetic beads were eluted with an eluent, and the pull-down products were detected by western blot assay.

[2] = molecular target: T2, STAT3 (Homo sapiens, UniProt P40763); assay: STAT3 protein degradation in HOS osteosarcoma cells, western blot; format: cell-based; parameters: endogenous in cells; details: 500 nM, 6 h
Protocol: (§1) HOS osteosarcoma cells were incubated with 500 nM double-stranded transcription factor decoy oligonucleotide S3, AS1411, the first PROTAC product 1411-S3-1, the second PROTAC product 1411-S3-2, or AS1411+double-stranded transcription factor decoy oligonucleotide S3. After 6 h, cell samples were collected for protein extraction and subsequent western blot assay.

[3] = molecular target: T2, STAT3; assay: STAT3 protein degradation in HeLa cells, western blot; format: cell-based; parameters: endogenous in cells; host or cells: HeLa; details: 500 nM, 6 h
Protocol: HeLa cells were incubated with 500 nM said first PROTAC product 1411-S3-1 or second PROTAC product 1411-S3-2, and corresponding cell samples were collected at time gradients of 0 h, 2 h, 6 h, 12 h, 18 h, and 24 h for protein extraction and subsequent western blot assay.
HeLa cells were incubated with the first PROTAC product 1411-S3-1 or the second PROTAC product 1411-S3-2 at concentrations of 0 nM, 100 nM, 200 nM, 500 nM, and 1000 nM. After 6 h, cell samples were collected for protein extraction and subsequent western blot assay. […] The half-maximal degradation concentrations (DC50) of the first PROTAC product 1411-S3-1 and the second PROTAC product 1411-S3-2 against STAT3 at the protein level were 262.5 nM and 136.3 nM, respectively, as shown in FIG. 19.
as §1, with “HeLa” for “HOS osteosarcoma”
HeLa cells were incubated with 500 nM said first PROTAC product 1411-S3-1 or second PROTAC product 1411-S3-2, and proteasome inhibitor MG132 was added. After 6 h, cell samples were collected for protein extraction and subsequent western blot assay. […]

[4] = test system: HeLa cervical cancer cells; assay: Binding of Cy5-labeled oligonucleotide to HeLa cells, flow cytometer; format: cell-based; details: 500 nM Cy5-labeled, 1.5 h
Protocol: When AS1411 was selected as the GRO, the model analysis for AS1411 as the novel recruitment element of MDM2 and a PROTAC constructed by using AS1411 as the novel recruitment element of MDM2 was specifically as follows: Since NCL is highly expressed in tumor cells and specifically distributed on the surface of tumor cells, the binding ability of AS1411 to HeLa cervical cancer cells was examined. HeLa cells were incubated with 500 nM CRO (cytosine-rich oligonucleotide, negative control) and AS1411 labeled by Cy5 for 1.5 h. […] AS1411 is set forth in SEQ ID NO: 1, and the sequence of the CRO is set forth in SEQ ID NO: 13.

[5] = molecular target: T1, MDM2; assay: Biotin-oligonucleotide pull-down from HeLa cell lysate, western blot (MDM2); format: binding; parameters: HeLa cervical cancer cells were lysed with an IP lysis solution; endogenous in cells; host or cells: HeLa; details: 5′-biotin label, 0 nM-20 μM
Protocol: HeLa cervical cancer cells were lysed with an IP lysis solution (purchased from Thermo Scientific, Cat. No.: 87788) and then incubated with a CRO (cytosine-rich oligonucleotide, negative control, SEQ ID NO: 13), AS1411, or iSN04 labeled by biotin at the 5′ end at different concentrations (0 nM, 200 nM, 500 nM, 1 μM, 5 μM, 10 μM, and 20 μM) at 4° C. for 6h. Subsequently, streptavidin agarose gel beads (purchased from cytiva, Cat. No.: 17511301) were added, and the mixture was further incubated at 4° C. overnight. After the bound biotin-labeled CRO, AS411, or iSN04 and its captured proteins on the gel beads were washed multiple times with an IP lysis buffer (purchased from Thermo Scientific, Cat. No.: 87788), an SDS-PAGE protein loading buffer (purchased from Beyotime, Cat. No.: P0015) was added, and the mixture was heated to 100° C. and held for 10 min. After centrifugation, the supernatant was collected as a pull-down product. The pull-down product was detected by western blot assay.

T1 sequence (P19338 2-710 partner limits assumed): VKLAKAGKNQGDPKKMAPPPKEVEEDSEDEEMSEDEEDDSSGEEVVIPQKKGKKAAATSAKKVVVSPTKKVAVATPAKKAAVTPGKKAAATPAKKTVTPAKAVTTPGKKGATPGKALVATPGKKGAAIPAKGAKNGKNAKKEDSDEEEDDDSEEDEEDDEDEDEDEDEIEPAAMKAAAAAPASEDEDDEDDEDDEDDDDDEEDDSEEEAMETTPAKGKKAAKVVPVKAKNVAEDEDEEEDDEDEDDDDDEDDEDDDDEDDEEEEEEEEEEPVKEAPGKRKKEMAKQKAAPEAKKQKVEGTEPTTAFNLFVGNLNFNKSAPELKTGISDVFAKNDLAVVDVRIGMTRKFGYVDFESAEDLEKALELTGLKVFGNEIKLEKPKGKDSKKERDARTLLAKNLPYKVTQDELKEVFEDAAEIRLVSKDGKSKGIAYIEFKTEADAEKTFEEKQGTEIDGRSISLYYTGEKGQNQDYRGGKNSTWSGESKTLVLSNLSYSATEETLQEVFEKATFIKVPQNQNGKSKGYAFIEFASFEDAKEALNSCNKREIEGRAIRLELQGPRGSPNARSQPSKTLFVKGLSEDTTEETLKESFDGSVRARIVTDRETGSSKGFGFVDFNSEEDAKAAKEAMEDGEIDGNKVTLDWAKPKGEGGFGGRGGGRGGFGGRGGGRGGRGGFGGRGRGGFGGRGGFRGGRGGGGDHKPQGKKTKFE
T1 sequence (Q00987 whole entry): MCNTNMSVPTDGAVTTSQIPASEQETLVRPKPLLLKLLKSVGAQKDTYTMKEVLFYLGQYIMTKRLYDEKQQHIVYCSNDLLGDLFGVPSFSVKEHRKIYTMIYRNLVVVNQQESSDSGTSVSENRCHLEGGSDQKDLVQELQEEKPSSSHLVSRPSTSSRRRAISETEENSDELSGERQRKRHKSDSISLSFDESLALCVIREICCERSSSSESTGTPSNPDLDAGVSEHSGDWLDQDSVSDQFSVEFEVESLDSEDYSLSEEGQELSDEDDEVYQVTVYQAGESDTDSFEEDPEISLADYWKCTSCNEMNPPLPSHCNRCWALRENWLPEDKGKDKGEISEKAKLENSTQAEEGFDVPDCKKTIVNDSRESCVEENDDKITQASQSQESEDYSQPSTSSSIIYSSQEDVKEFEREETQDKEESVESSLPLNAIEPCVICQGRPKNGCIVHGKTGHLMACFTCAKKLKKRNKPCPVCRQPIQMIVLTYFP
T2 sequence (P40763 whole entry): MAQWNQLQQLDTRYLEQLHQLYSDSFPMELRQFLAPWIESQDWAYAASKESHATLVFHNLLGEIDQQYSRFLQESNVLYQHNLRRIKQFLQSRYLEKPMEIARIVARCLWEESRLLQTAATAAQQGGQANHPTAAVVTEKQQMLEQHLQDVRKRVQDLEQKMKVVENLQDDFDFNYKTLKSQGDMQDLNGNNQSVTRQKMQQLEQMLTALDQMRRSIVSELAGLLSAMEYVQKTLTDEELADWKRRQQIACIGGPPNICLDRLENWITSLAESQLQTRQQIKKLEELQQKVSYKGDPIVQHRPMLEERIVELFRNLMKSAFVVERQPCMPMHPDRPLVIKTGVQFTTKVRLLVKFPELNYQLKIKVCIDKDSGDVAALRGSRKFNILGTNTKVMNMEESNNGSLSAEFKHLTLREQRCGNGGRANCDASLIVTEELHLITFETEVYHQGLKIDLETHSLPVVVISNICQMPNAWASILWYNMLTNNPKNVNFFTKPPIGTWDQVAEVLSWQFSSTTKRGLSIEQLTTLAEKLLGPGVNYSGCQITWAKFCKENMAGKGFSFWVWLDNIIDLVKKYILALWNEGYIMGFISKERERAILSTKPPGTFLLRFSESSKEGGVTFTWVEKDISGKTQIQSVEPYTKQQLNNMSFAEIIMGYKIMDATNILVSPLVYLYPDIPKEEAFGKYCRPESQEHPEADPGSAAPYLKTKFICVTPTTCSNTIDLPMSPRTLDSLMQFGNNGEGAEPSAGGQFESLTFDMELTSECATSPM

## AS1411: DNA aptamer, GRO binding NCL, SEQ ID NO: 1: 5′-GGTGGTGGTGGTTGTGGTGGTGGTGG-3′
[1]
  recruitment of MDM2 when NCL is silenced: silencing NCL can block the recruitment of MDM2 by AS1411
[2]
  protein level of STAT3: only the first PROTAC product 1411-S3-1 and the second PROTAC product 1411-S3-2 can reduce the protein level of transcription factor STAT3
[3]
  protein level of STAT3: only the first PROTAC product 1411-S3-1 and the second PROTAC product 1411-S3-2 can reduce the protein level of transcription factor STAT3
[4]
  binding ability to HeLa cells: can significantly bind to HeLa cells
[5]
  capture of MDM2: can capture NCL and MDM2 in a concentration-dependent manner

Reference: patent US20260256923A1, “NEW RECRUITMENT ELEMENT OF UBIQUITIN LIGASE AND USE THEREOF” (SHENZHEN LINGGENE BIOTECH CO., LTD., priority 2023, published 2026)
